Patent US20260285853A1, “COMPOUNDS AND METHODS FOR MODULATING SPLICING” (REMIX THERAPEUTICS INC., priority 2023, published 2026)

Tests used:
Type in all cases: cell-based
[1] = test system: HTT mRNA; assay: Splicing RT-qPCR assay (THP), Table 2A; details: Table 2A, THP; for AC50: HTT alternative junction (AJ) mRNA, read-out: HTT AJ (AC50, increase in alternative junction mRNA); for IC50: HTT canonical junction (CJ) mRNA, read-out: HTT CJ (IC50, decrease in canonical junction mRNA)
[2] = test system: MYB mRNA; assay: Splicing RT-qPCR assay (THP), Table 2A; details: Table 2A, THP; for AC50: MYB alternative junction (AJ) mRNA, read-out: MYB AJ (AC50, increase in alternative junction mRNA); for IC50: MYB canonical junction (CJ) mRNA, read-out: MYB CJ (IC50, decrease in canonical junction mRNA)
[3] = test system: HTT mRNA; assay: Gene panel canonical junction qPCR assay, decrease in CJ mRNA, Table 3; details: decrease in CJ mRNA levels, canonical junction qPCR, gene panel
Outline: (§1)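 A673 cells were plated, left to adhere for 24 h, then dosed; K562 cells were plated in 96- or 384-well format and dosed directly. Both were incubated 24 h at 37 °C with an 11-point 3-fold series (top 10 uM final). Canonical junction mRNA was then read by cDNA synthesis and qPCR.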

[4] = test system: MYB mRNA; assay: as above; details: decrease in CJ mRNA levels, canonical junction qPCR, gene panel
Outline: as §1

[5] = test system: SH-SY5Y (human neuroblastoma) cells; assay: Cell viability, Cell Titer Glo 2.0 assay; details: read-out: Viability SHSY5Y.3 GI50
Outline: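 SH-SY5Y neuroblastoma cells are exposed to test compounds for 72 hours at 37 °C and 5% CO2, with final DMSO held at 0.1%. Cell viability is then measured with the CellTiter-Glo 2.0 assay.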

Compound | AC50 [1] [nM] | IC50 [1] [nM] | AC50 [2] [nM] | IC50 [2] [nM] | IC50 [3] [nM] | IC50 [4] [nM] | GI50 [5] [nM]
COc1cc2c(N3C[C@H](C)N[C@@H](C)C3)ccc(C(=O)Nc3cc(F)c4nn(C)cc4c3)n2n1 [Compound 697, 4-[(3S,5S)-3,5-dimethylpiperazin-1-yl]-N-(7-fluoro-2-methyl-indazol-5-yl)-2-methoxy-pyrazolo[1,5-a]pyridine-7-carboxamide] | < 100 | 100 to 1000 | < 100 | < 100 | 100 to 1000 | < 100 | < 100
COc1cc2c(N3C[C@H](C)N[C@@H](C)C3)ccc(C(=O)Nc3cc4cn(C)nc4cc3OC)n2n1 [Compound 698, 4-[(3S,5S)-3,5-dimethylpiperazin-1-yl]-2-methoxy-N-(6-methoxy-2-methyl-indazol-5-yl) pyrazolo[1,5-a]pyridine-7-carboxamide] | 1000 to 10000 | 1000 to 10000 | < 100 | < 100 | 1000 to 10000 | < 100 | 100 to 1000
CNc1nc2c(C(=O)Nc3cc(F)c4nn(C)cc4c3)ccc(N3C[C@H](C)N[C@@H](C)C3)c2s1 [Compound 699, 7-[(3S,5S)-3,5-dimethylpiperazin-1-yl]-N-(7-fluoro-2-methyl-indazol-5-yl)-2-(methylamino)-1,3-benzothiazole-4-carboxamide] | 100 to 1000 | 100 to 1000 | < 100 | < 100 | 100 to 1000 | < 100 | < 100
C[C@H]1CN(c2ccc(C(=O)Nc3cc(F)c4nn(C)cc4c3)c3nc(N)sc23)C[C@H](C)N1 [Compound 700, 2-amino-7-[(3S,5S)-3,5-dimethylpiperazin-1-yl]-N-(7-fluoro-2-methyl-indazol-5-yl)-1,3-benzothiazole-4-carboxamide] | 100 to 1000 | 100 to 1000 | < 100 | < 100 | 100 to 1000 | < 100 | 100 to 1000
CCNC1CCN(c2cc(F)c(C(=O)Nc3cn4ccnc4cc3OC)c3nn(C)cc23)CC1 [Compound 701, 4-[4-(ethylamino)-1-piperidyl]-6-fluoro-N-(7-methoxyimidazo[1,2-a]pyridin-6-yl)-2-methyl-indazole-7-carboxamide] | > 10000 | > 10000 | 100 to 1000 | 100 to 1000 | > 10000 | 100 to 1000 | > 10000
Cc1cn2cc(NC(=O)c3ccc(N4CCC(NC5CC5)CC4)c4cn(C)nc34)nc2c(CCS(C)(=O)=O)n1 [Compound 702] | > 10000 | > 10000 | 1000 to 10000 | 1000 to 10000 | > 10000 | 1000 to 10000 | > 10000
Cc1cn2cc(NC(=O)c3ccc(N4CCC(NC5CC5)CC4)c4cn(C)nc34)nc2c(CN(C)S(C)(=O)=O)n1 [Compound 703, 4-(4-(cyclopropylamino)piperidin-1-yl)-2-methyl-N-(6-methyl-8-((N-methylmethylsulfonamido)methyl)imidazo[1,2-a]pyrazin-2-yl)-2H-indazole-7-carboxamide 2,2,2-trifluoroacetate] | > 10000 | > 10000 | > 10000 | > 10000 | > 10000 | > 10000 | > 10000
CCNC1CCN(c2ccc(C(=O)Nc3cc(F)c4nn(C)cc4c3)c3nc(OC)sc23)CC1 [Compound 704, 7-(4-(ethylamino)piperidin-1-yl)-N-(7-fluoro-2-methyl-2H-indazol-5-yl)-2-methoxybenzo[d]thiazole-4-carboxamide 2,2,2-trifluoroacetate] | 100 to 1000 | 100 to 1000 | < 100 | < 100 | 100 to 1000 | < 100 | 100 to 1000
COc1nc2c(C(=O)Nc3cc(F)c4nc(C)cn4c3)ccc(N3C[C@H](C)N[C@@H](C)C3)c2s1 [Compound 705, 7-[(3S,5S)-3,5-dimethylpiperazin-1-yl]-N-(8-fluoro-2-methyl-imidazo[1,2-a]pyridin-6-yl)-2-methoxy-1,3-benzothiazole-4-carboxamide] | 100 to 1000 | 100 to 1000 | < 100 | < 100 | 100 to 1000 | < 100 | < 100
C[C@H]1CN(c2ccc(C(=O)Nc3cc(F)c4nn(C)cc4c3)c3nc(CNS(C)(=O)=O)sc23)C[C@H](C)N1 [Compound 706, 7-[(3S,5S)-3,5-dimethylpiperazin-1-yl]-N-(7-fluoro-2-methyl-indazol-5-yl)-2-(methanesulfonamidomethyl)-1,3-benzothiazole-4-carboxamide] | 100 to 1000 | 100 to 1000 | < 100 | 100 to 1000 | 100 to 1000 | 100 to 1000 | 100 to 1000
C[C@H]1CN(c2ccc(C(=O)Nc3cc(F)c4nn(C)cc4c3)c3nc(CN)sc23)C[C@H](C)N1 [Compound 707, 2-(aminomethyl)-7-[(3S,5S)-3,5-dimethylpiperazin-1-yl]-N-(7-fluoro-2-methyl-indazol-5-yl)-1,3-benzothiazole-4-carboxamide] | 100 to 1000 | 1000 to 10000 | < 100 | < 100 | 1000 to 10000 | < 100 | 100 to 1000
Cn1cc2cc(NC(=O)c3cc(F)c(N4CCC(NC5CC5)CC4)c4cn(C)nc34)cc(F)c2n1 [Compound 708, 4-[4-(cyclopropylamino)-1-piperidyl]-5-fluoro-N-(7-fluoro-2-methyl-indazol-5-yl)-2-methyl-indazole-7-carboxamide] | > 10000 | > 10000 | 1000 to 10000 | > 10000 | > 10000 | > 10000 | 1000 to 10000
COc1c(NC(=O)c2cc(F)c(N3CCC(NC4CC4)CC3)c3cn(C)nc23)cn2cc(C)nc2c1F [Compound 709] | 1000 to 10000 | 1000 to 10000 | 100 to 1000 | 100 to 1000 | 1000 to 10000 | 100 to 1000 | 1000 to 10000
COc1nc2c(C(=O)Nc3cc4c(C)nc(C)cn4n3)ccc(N3C[C@H](C)N[C@@H](C)C3)c2s1 [Compound 710, 7-[(3S,5S)-3,5-dimethylpiperazin-1-yl]-N-(4,6-dimethylpyrazolo[1,5-a]pyrazin-2-yl)-2-methoxy-1,3-benzothiazole-4-carboxamide] | 1000 to 10000 | 1000 to 10000 | 1000 to 10000 | 1000 to 10000 | 1000 to 10000 | 1000 to 10000 | 1000 to 10000
COc1nc2c(C(=O)Nc3cn4cc(C)nc(C)c4n3)ccc(N3C[C@H](C)N[C@@H](C)C3)c2s1 [Compound 711, N-(6,8-dimethylimidazo[1,2-a]pyrazin-2-yl)-7-[(3S,5S)-3,5-dimethylpiperazin-1-yl]-2-methoxy-1,3-benzothiazole-4-carboxamide] | > 10000 | > 10000 | 1000 to 10000 | 1000 to 10000 | > 10000 | 1000 to 10000 | 1000 to 10000
C[C@H]1CN(c2ccc(C(=O)Nc3cc(F)c4nn(C)cc4c3)c3nc(OCCO)sc23)C[C@H](C)N1 [Compound 712, 7-[(3S,5S)-3,5-dimethylpiperazin-1-yl]-N-(7-fluoro-2-methyl-indazol-5-yl)-2-(2-hydroxyethoxy)-1,3-benzothiazole-4-carboxamide] | < 100 | < 100 | < 100 | < 100 | < 100 | < 100 | < 100
Cc1cn2cc(NC(=O)c3cc(F)c(N4CCC(NC5CC5)CC4)c4cn(C)nc34)cc(F)c2n1 [Compound 713, 4-[4-(cyclopropylamino)-1-piperidyl]-5-fluoro-N-(8-fluoro-2-methyl-imidazo[1,2-a]pyridin-6-yl)-2-methyl-indazole-7-carboxamide] | > 10000 | > 10000 | 100 to 1000 | 100 to 1000 | > 10000 | 100 to 1000 | 100 to 1000
COc1nc2c(C(=O)Nc3ccc4nn(C)cc4n3)ccc(N3C[C@H](C)N[C@@H](C)C3)c2s1 [Compound 714, 7-[(3S,5S)-3,5-dimethylpiperazin-1-yl]-2-methoxy-N-(2-methylpyrazolo[4,3-b]pyridin-5-yl)-1,3-benzothiazole-4-carboxamide] | 100 to 1000 | 100 to 1000 | < 100 | < 100 | 100 to 1000 | < 100 | < 100
COc1nc2c(C(=O)Nc3cccc4c3cnn4C)ccc(N3C[C@H](C)N[C@@H](C)C3)c2s1 [Compound 715] | > 10000 | > 10000 | > 10000 | > 10000 | > 10000 | > 10000 | 100 to 1000
COc1nc2c(C(=O)Nc3ccc4c(c3)OCCO4)ccc(N3C[C@H](C)N[C@@H](C)C3)c2s1 [Compound 716, N-(2,3-dihydro-1,4-benzodioxin-6-yl)-7-[(3S,5S)-3,5-dimethylpiperazin-1-yl]-2-methoxy-1,3-benzothiazole-4-carboxamide] | > 10000 | 1000 to 10000 | 1000 to 10000 | 1000 to 10000 | 1000 to 10000 | 1000 to 10000 | 1000 to 10000
